# Results taken from ChEMBL document CHEMBL3885881, “DrugMatrix”.
# Organism: Rattus norvegicus
# Experiment: DrugMatrix - Regimen: Daily Repeat
# Assay type: toxicity, organism-based, Sprague-Dawley
# Set-up: regimen Daily Repeat, gender Male, age 6-8 weeks
# Settings: in vivo, po, route oral GAVAGE, vehicle .5 % CMC; for ABSOLUTE BASOPHIL / ABSOLUTE EOSINOPHIL / ABSOLUTE LYMPHOCYTE / ABSOLUTE MONOCYTE / ABSOLUTE SEGMENTED NEUTROPHIL / BASOPHIL / EOSINOPHIL / ERYTHROCYTE COUNT / HEMATOCRIT / HEMOGLOBIN / LEUKOCYTE COUNT / LYMPHOCYTE / MEAN CORPUSCULAR HEMOGLOBIN / MEAN CORPUSCULAR HEMOGLOBIN CONCENTRATION / MEAN CORPUSCULAR VOLUME / MONOCYTE / NEUTROPHIL / NUCLEATED RED BLOOD CELLS / PLATELET COUNT: tissue Blood; for ALANINE AMINOTRANSFERASE / ALBUMIN / ALKALINE PHOSPHATASE / ASPARTATE AMINOTRANSFERASE / BLOOD UREA NITROGEN / CARBON DIOXIDE / CHLORIDE / CHOLESTEROL / CREATINE PHOSPHOKINASE / CREATININE / GLUCOSE / LACTATE DEHYDROGENASE / LIPASE / PHOSPHORUS / SODIUM / TOTAL BILIRUBIN / TOTAL PROTEIN / URIC ACID: tissue Plasma
# [1] = 20 mg/kg, 72 h, dose level Low, time 3 day
# [2] = 20 mg/kg, 120 h, dose level Low, time 5 day
# [3] = 2000 mg/kg, 72 h, dose level High, time 3 day
# [4] = 2000 mg/kg, 120 h, dose level High, time 5 day
compound,measurement,setting,value
NCCCC[C@H](N[C@@H](CCc1ccccc1)C(=O)O)C(=O)N1CCC[C@H]1C(=O)O [LISINOPRIL ANHYDROUS],ABSOLUTE BASOPHIL,[1],0 CELLS/uL
same,ABSOLUTE EOSINOPHIL,[1],69 CELLS/uL
same,ABSOLUTE LYMPHOCYTE,[1],9482.67 CELLS/uL
same,ABSOLUTE MONOCYTE,[1],143.67 CELLS/uL
same,ABSOLUTE SEGMENTED NEUTROPHIL,[1],904.67 CELLS/uL
same,BASOPHIL,[1],0%
same,EOSINOPHIL,[1],0.67%
same,ERYTHROCYTE COUNT,[1],5.65 x10E6/uL
same,HEMATOCRIT,[1],34.1%
same,HEMOGLOBIN,[1],13.3 G/DL
same,LEUKOCYTE COUNT,[1],10.6 x10E3/uL
same,LYMPHOCYTE,[1],89.33%
same,MEAN CORPUSCULAR HEMOGLOBIN,[1],23.63 pg
same,MEAN CORPUSCULAR HEMOGLOBIN CONCENTRATION,[1],39 G/DL
same,MEAN CORPUSCULAR VOLUME,[1],60.5 fL
same,MONOCYTE,[1],1.33%
same,NEUTROPHIL,[1],8.67%
same,NUCLEATED RED BLOOD CELLS,[1],0 /100WBC
same,PLATELET COUNT,[1],1392 x10E3/uL
same,ALANINE AMINOTRANSFERASE,[1],44 u/L
same,ALBUMIN,[1],4.1 G/DL
same,ALKALINE PHOSPHATASE,[1],387 u/L
same,ASPARTATE AMINOTRANSFERASE,[1],70 u/L
same,BLOOD UREA NITROGEN,[1],22.67 mg/dL
same,CARBON DIOXIDE,[1],23.33 mmol/L
same,CHLORIDE,[1],101 MEQ/L
same,CHOLESTEROL,[1],80.33 mg/dL
same,CREATINE PHOSPHOKINASE,[1],236.67 u/L
same,CREATININE,[1],0.18 mg/dL
same,GLUCOSE,[1],166 mg/dL
same,LACTATE DEHYDROGENASE,[1],94.33 u/L
same,LIPASE,[1],10 u/L
same,PHOSPHORUS,[1],11.87 mg/dL
same,SODIUM,[1],140.73 MEQ/L
same,TOTAL BILIRUBIN,[1],0.23 mg/dL
same,TOTAL PROTEIN,[1],5.83 G/DL
same,URIC ACID,[1],2.13 mg/dL
same,ABSOLUTE BASOPHIL,[2],0 CELLS/uL
same,ABSOLUTE EOSINOPHIL,[2],0 CELLS/uL
same,ABSOLUTE LYMPHOCYTE,[2],11890.67 CELLS/uL
same,ABSOLUTE MONOCYTE,[2],94.67 CELLS/uL
same,ABSOLUTE SEGMENTED NEUTROPHIL,[2],1714.67 CELLS/uL
same,BASOPHIL,[2],0%
same,EOSINOPHIL,[2],0%
same,ERYTHROCYTE COUNT,[2],6.1 x10E6/uL
same,HEMATOCRIT,[2],36.67%
same,HEMOGLOBIN,[2],14.77 G/DL
same,LEUKOCYTE COUNT,[2],13.7 x10E3/uL
same,LYMPHOCYTE,[2],87%
same,MEAN CORPUSCULAR HEMOGLOBIN,[2],24.23 pg
same,MEAN CORPUSCULAR HEMOGLOBIN CONCENTRATION,[2],40.3 G/DL
same,MEAN CORPUSCULAR VOLUME,[2],60.07 fL
same,MONOCYTE,[2],0.67%
same,NEUTROPHIL,[2],12.33%
same,NUCLEATED RED BLOOD CELLS,[2],0 /100WBC
same,PLATELET COUNT,[2],1320.33 x10E3/uL
same,ALANINE AMINOTRANSFERASE,[2],51.33 u/L
same,ALBUMIN,[2],4.53 G/DL
same,ALKALINE PHOSPHATASE,[2],401 u/L
same,ASPARTATE AMINOTRANSFERASE,[2],81.67 u/L
same,BLOOD UREA NITROGEN,[2],22.33 mg/dL
same,CARBON DIOXIDE,[2],27.67 mmol/L
same,CHLORIDE,[2],96.33 MEQ/L
same,CHOLESTEROL,[2],70.67 mg/dL
same,CREATINE PHOSPHOKINASE,[2],297.33 u/L
same,CREATININE,[2],0.22 mg/dL
same,GLUCOSE,[2],158 mg/dL
same,LACTATE DEHYDROGENASE,[2],249 u/L
same,LIPASE,[2],9.67 u/L
same,PHOSPHORUS,[2],11.77 mg/dL
same,SODIUM,[2],139.17 MEQ/L
same,TOTAL BILIRUBIN,[2],0.17 mg/dL
same,URIC ACID,[2],2 mg/dL
same,ABSOLUTE BASOPHIL,[3],0 CELLS/uL
same,ABSOLUTE EOSINOPHIL,[3],42.33 CELLS/uL
same,ABSOLUTE LYMPHOCYTE,[3],11490 CELLS/uL
same,ABSOLUTE MONOCYTE,[3],124.67 CELLS/uL
same,ABSOLUTE SEGMENTED NEUTROPHIL,[3],1076.33 CELLS/uL
same,BASOPHIL,[3],0%
same,EOSINOPHIL,[3],0.33%
same,ERYTHROCYTE COUNT,[3],5.63 x10E6/uL
same,HEMATOCRIT,[3],33.57%
same,HEMOGLOBIN,[3],13.17 G/DL
same,LEUKOCYTE COUNT,[3],12.73 x10E3/uL
same,LYMPHOCYTE,[3],90%
same,MEAN CORPUSCULAR HEMOGLOBIN,[3],23.43 pg
same,MEAN CORPUSCULAR HEMOGLOBIN CONCENTRATION,[3],39.27 G/DL
same,MEAN CORPUSCULAR VOLUME,[3],59.63 fL
same,MONOCYTE,[3],1%
same,NEUTROPHIL,[3],8.67%
same,NUCLEATED RED BLOOD CELLS,[3],0 /100WBC
same,PLATELET COUNT,[3],1324.33 x10E3/uL
same,ALANINE AMINOTRANSFERASE,[3],40.33 u/L
same,ALBUMIN,[3],4.03 G/DL
same,ALKALINE PHOSPHATASE,[3],322.67 u/L
same,ASPARTATE AMINOTRANSFERASE,[3],68 u/L
same,BLOOD UREA NITROGEN,[3],26.67 mg/dL
same,CARBON DIOXIDE,[3],24.67 mmol/L
same,CHLORIDE,[3],101.33 MEQ/L
same,CHOLESTEROL,[3],71.67 mg/dL
same,CREATINE PHOSPHOKINASE,[3],262 u/L
same,CREATININE,[3],0.29 mg/dL
same,GLUCOSE,[3],155 mg/dL
same,LACTATE DEHYDROGENASE,[3],122.67 u/L
same,LIPASE,[3],9.67 u/L
same,PHOSPHORUS,[3],11.5 mg/dL
same,SODIUM,[3],141.1 MEQ/L
same,TOTAL BILIRUBIN,[3],0.13 mg/dL
same,TOTAL PROTEIN,[3],5.77 G/DL
same,URIC ACID,[3],1.53 mg/dL
same,ABSOLUTE BASOPHIL,[4],0 CELLS/uL
same,ABSOLUTE EOSINOPHIL,[4],43.33 CELLS/uL
same,ABSOLUTE LYMPHOCYTE,[4],10946.67 CELLS/uL
same,ABSOLUTE MONOCYTE,[4],86.67 CELLS/uL
same,ABSOLUTE SEGMENTED NEUTROPHIL,[4],1123.33 CELLS/uL
same,BASOPHIL,[4],0%
same,EOSINOPHIL,[4],0.33%
same,ERYTHROCYTE COUNT,[4],5.62 x10E6/uL
same,HEMATOCRIT,[4],34.17%
same,HEMOGLOBIN,[4],13.67 G/DL
same,LEUKOCYTE COUNT,[4],12.2 x10E3/uL
same,LYMPHOCYTE,[4],89.67%
same,MEAN CORPUSCULAR HEMOGLOBIN,[4],24.37 pg
same,MEAN CORPUSCULAR HEMOGLOBIN CONCENTRATION,[4],40 G/DL
same,MEAN CORPUSCULAR VOLUME,[4],60.8 fL
same,MONOCYTE,[4],0.67%
same,NEUTROPHIL,[4],9.33%
same,NUCLEATED RED BLOOD CELLS,[4],0 /100WBC
same,PLATELET COUNT,[4],1374 x10E3/uL
same,ALANINE AMINOTRANSFERASE,[4],43.33 u/L
same,ALBUMIN,[4],4.17 G/DL
same,ALKALINE PHOSPHATASE,[4],336.33 u/L
same,ASPARTATE AMINOTRANSFERASE,[4],74 u/L
same,BLOOD UREA NITROGEN,[4],29.67 mg/dL
same,CARBON DIOXIDE,[4],22.67 mmol/L
same,CHLORIDE,[4],103 MEQ/L
same,CHOLESTEROL,[4],72 mg/dL
same,CREATINE PHOSPHOKINASE,[4],214 u/L
same,CREATININE,[4],0.25 mg/dL
same,GLUCOSE,[4],167.67 mg/dL
same,LACTATE DEHYDROGENASE,[4],146.33 u/L
same,LIPASE,[4],9.67 u/L
same,PHOSPHORUS,[4],10.97 mg/dL
same,SODIUM,[4],141.47 MEQ/L
same,TOTAL BILIRUBIN,[4],0.13 mg/dL
same,TOTAL PROTEIN,[4],5.97 G/DL
same,URIC ACID,[4],1.9 mg/dL
